Measurements from US7179800B2 (priority 2002, dated 2007).

Key:
[1] = test system: Male ICR mice; assay: Suppression of spontaneous activity (SA) in mice; type: in vivo, mouse; conditions: Mus musculus, iv, mice, i.v.
[2] = target: T1, CB2 receptor (Homo sapiens, UniProt P34972); assay: CB2 binding procedure: displacement of [3H]CP-55,940 from membranes of transfected CHO cells; conditions: for CB1/CB2 (ratio of Ki): CB1 Ki divided by CB2 Ki; for Ki: means ± SEM, [3H]CP-55,940, transfected CHO cell membranes, read-out: Ki (nM) CB2; for fold decrease in CB2 affinity: relative to the comparator analog
T1 construct: expressed in transfected cells; host or cells: CHO cells, G418-selected transfected line
T1 sequence (P34972 whole entry): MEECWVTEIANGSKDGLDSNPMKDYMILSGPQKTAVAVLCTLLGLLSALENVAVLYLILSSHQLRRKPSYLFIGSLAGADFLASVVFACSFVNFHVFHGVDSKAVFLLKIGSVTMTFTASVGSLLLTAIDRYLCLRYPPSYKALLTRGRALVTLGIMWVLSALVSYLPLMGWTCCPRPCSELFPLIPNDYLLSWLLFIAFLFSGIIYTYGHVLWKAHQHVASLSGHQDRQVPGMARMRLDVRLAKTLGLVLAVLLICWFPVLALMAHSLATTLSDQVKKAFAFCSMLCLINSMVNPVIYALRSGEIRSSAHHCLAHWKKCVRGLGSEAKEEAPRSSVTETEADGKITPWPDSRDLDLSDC

[3] = test system: Male ICR mice; assay: Tail-flick antinociception (TF, % MPE) in mice; type: in vivo, mouse; conditions: Mus musculus, iv, mice, i.v.
[4] = 95% confidence limits in parentheses, read-out: ED50 SA (suppression of spontaneous activity)
[5] = 95% confidence limits in parentheses, read-out: ED50 TF (antinociceptive effect in tail flick assay)

SMILES | ED50 ([1]; Table 6, read-out: S.A ED50) [mg/kg] | ED50 [1, 4] [µmol/kg] | CB1/CB2 (ratio of Ki) [2] | Ki [2] [nM] | ED50 ([3]; Table 6, read-out: T.F. ED50) [mg/kg] | ED50 [3, 5] [µmol/kg] | fold decrease in CB2 affinity [2]
CCCCCCC(C)(C)c1cc(O)c(C2CCCC(C)C2)c(O)c1 (mixture of isomers) [O-1657, 2-(3-Methylcyclohexyl)-5-(1′,1′-dimethylheptyl)-resorcinol] | 0.13 | 0.3 | 17 | 0.8 ± 0.04 | 0.23 | 0.6 | 
CCCCCCC(C)(C)c1cc(O)c([C@H]2CCCC(C)C2)c(O)c1 (single isomer, unassigned) [O-1826] | 0.915 | 2.7 | 50 | 0.8 ± 0.05 | 0.821 | 2.4 | 
CCCCCCC(C)(C)c1ccc(-c2cc(C)ccc2C(C)C)c(O)c1 [O-1376, 3-1′,1′-Dimethylheptyl-6-(2-isopropyl-5-methylphenyl)phenol] | 2.94 | 8.5 | 11 | 3 ± 0.4 | 1.97 | 5.7 | 
CCCCCCC(C)(C)c1cc(O)c(C2CCCCC2)c(O)c1 [O-1422, Cyclohexyl-5-(1′,1′-dimethylheptyl)-resorcinol] | 0.379 | 0.1 | 7 | 1.5 ± 0.1 | 0.241 | 0.6 | 
CCCCCCC(C)(C)c1cc(O)c(C2=CCCCC2)c(O)c1 [O-1423] | 3.92 | 12 | 3 | 28 ± 5 | 2.86 | 9 | 
CCCCCCC(C)(C)c1cc(O)c(C2CCSCC2)c(O)c1 [O-1425] | 5.82 | 17 | 13 | 12 ± 2 | 5.05 | 15 | 8 fold
CCCCCCC(C)(C)c1cc(O)c(C2CCCCC2C)c(O)c1 (centres unmarked) [O-1658, 2-(2-Methylcyclohexyl)-5-(1′,1′-dimethylheptyl)-resorcinol] | 0.06 | 0.2 | 16 | 1 ± 0.3 | 0.09 | 0.3 | 
CCCCCCC(C)(C)c1cc(O)c(C2CCC(C)CC2)c(O)c1 (centres unmarked) [O-1659, 2-(4-Methylcyclohexyl)-5-(1′,1′-dimethylheptyl)-resorcinol] | 1.65 | 4.8 | 9 | 5 ± 0.9 | 1.35 | 3.9 | about 5 fold
CCCCCCC(C)(C)c1cc(O)c(C2C3CC4CC(C3)CC2C4)c(O)c1 (centres unmarked) [O-1660, 2-(2-Adamantyl)-5-(1′,1′-di-methylheptyl)-resorcinol] | 1.27 | 3.5 | 2 | 3 ± 0.8 | 0.911 | 2.4 | 
CCCCCCC(C)(C)c1cc(O)c(C2CCSC2)c(O)c1 (centres unmarked) [O-1661, 2-(Tetrahydrothiophen-3-yl)-5-(1′,1′-dimethylheptyl)-re-sorcinol] | 2.65 | 24 | 5 | 28 ± 12 | 4.39 | 14 | 
CCCC(C)(C)c1cc(O)c(C2CCCC(C)C2)c(O)c1 (centres unmarked) [O-1890, 2-(3-Methylcyclohexyl)-5-(1′,1′-dimethylbutyl)-resorcinol] | 20 | 69 | 7 | 13 ± 1 | 14 | 48 | 
